| melting point [°C] | Structure (SMILES) |
| --- | --- |
| 198 | CC(C)(Oc1ccc(CC(=O)Nc2ccc(F)cc2)cc1)C(=O)O |
| 108 to 111 | Clc1ccc(C(Br)Br)c(C(Br)Br)c1 |
| 247 to 249 | O=C(O)c1cccc(C23CC4CC(CC(C4)C2)C3)c1 |
| 139 to 140 | CC(C)N1CCc2ccc(C(=O)CCC(=O)N3CCC(c4ccc(Cl)cc4)CC3)cc2CC1 |
| 228 | Cc1cc(-c2ccc(Cl)cc2)cn2c(C(=O)O)cnc12 |
| 110 | CC(C)Oc1ccc(C=O)cc1OCCN1C(=O)c2ccccc2C1=O |
| 86 to 87 | CCOC(=O)C1=C(C)NC(COC(=O)CCN(C)Cc2ccccc2)=C(C(=O)OCC)C1c1ccccc1Cl (centres undefined) |
| 82 to 83 | CC(C)(Cl)C(=O)c1ccc(C(=O)c2ccc(C(=O)C(C)(C)Cl)cc2)cc1 |
| 71.5 to 72.5 | COCCOc1cc(Cl)cnc1[N+](=O)[O-] |
| 76 to 81 | CC(=O)Nc1cccc(-c2cnc3c(c2)nc(-c2cccnc2N)n3-c2ccc(CNC(=O)c3ccccc3)cc2)c1 |
| 225 to 227 | CON=C1CN(c2nc3c(cc2F)c(=O)c(C(=O)O)cn3C2CC2)CC12CN(C)C2 |
| 233 to 235 | CCc1nc2c(N)nc3cccnc3c2n1CC1(O)CCN(C(=O)OC(C)(C)C)CC1 |
| 199 | O=C(O)C1=Cc2cc(Cl)c(Oc3ccccc3Cl)cc2OC1C(F)(F)F (centres undefined) |
| 161 to 163 | N#CNC(=Nc1ccncc1)NCCSc1ccccc1 |
| 110 to 112 | COCC1CN(c2ccc3cc(OCCC#N)ccc3c2)C(=O)O1 (centres undefined) |
| 135 to 136 | O=C(Nc1ccc(Oc2ccnc(NC3CCCCC3)n2)c2ccccc12)c1cc(F)cc(N2CCOCC2)c1 |
| 244 to 246 | Nc1ncc(-c2ccc3nnn(Cc4ccc5ncccc5c4)c3n2)cn1 |
| 171 | O=C(C=Cc1cccc(NS(=O)(=O)/C=C/c2ccccc2)c1)NO |
| > 300 | O=c1[nH]c2cc(Cl)ccc2c(O)c1-c1ccccc1Cl |
| 125 | CCC(=O)Oc1cccc2c1C(=O)c1c(O)cccc1C2C(=O)CC (centres undefined) |
| 68 | COC(=O)c1ccc(C(O)c2cnn3c(N(C)c4ccccc4)ncnc23)cc1 (centres undefined) |
| 118 to 120 | CCn1c(=O)c(C(=O)NCCOC)c(O)c2ccc(C)nc21 |
| 185 | O=c1oc2c(c(O)c1-c1ccccc1)CCCC2c1ccccc1 (centres undefined) |
| 218 | CC=Cn1c(=S)sc2c(=N)n(NC(=O)c3ccco3)cnc21 |

| melting point [°C] | Structure (SMILES) |
| --- | --- |
| 135 to 137 | C=CC(=O)Oc1c(Br)c(Br)c(Br)c(Br)c1OC(=O)C=C |
| 130 | CC(C)(Nc1ccc(Cc2ccccc2)cc1)C(=O)O |
| 124 to 126 | c1ncc2ncncc2n1 |
| 257 to 259 | Oc1cccc2c1nc(-c1c(F)cccc1F)n2Cc1c(F)cccc1F |
| 70 to 73 | CC(O)(COc1ccc(C(=O)c2ccccc2)cc1)C(F)(F)F (centres undefined) |
| 170 to 171 | CCOC(=O)c1c(Cn2cnnc2)nc2cc(OC)c(OC)cc2c1-c1ccc(OC)c(OC(C)C)c1 |
| 164 to 166 | CC1CC(C)CN(S(=O)(=O)c2ccc(Cl)c(C(=O)Cl)c2)C1 (centres undefined) |
| 161 | C[C@H](NCc1ccc(OCc2ccccc2F)c(Cc2ccccc2F)c1)C(N)=O |
| 87 to 88 | COc1cc2c(c3c1OC(C)(C)C3)C(c1cccc(Nc3ccccc3)c1)=NC(C)(C)C2 |
| 194 to 197 | CCOC1=CC(=O)CC(c2ccccc2O)C1 (centres undefined) |
| 95 to 97 | CS(=O)(=O)c1ccc(-n2cc(C(F)(F)F)nc2-c2ccc(-c3cccs3)cc2)cc1 |
| 42 | CCn1ncnc1COc1nn2c(-c3c(F)ccc(F)c3F)nncc2c1C(C)(C)C |
| 182 to 184 | COc1ccc(NS(=O)(=O)c2cc3cc(Br)ccc3oc2=O)cc1 |
| 150 | Cc1cccc(NC(=O)NCC(=O)N2[C@@H](C(=O)OC(C)(C)C)C[C@@H](C#N)[C@H]2c2ccccc2)c1 (racemic) |
| 168 to 169 | O=S(=O)(NCCc1ccc(Cc2nnn[nH]2)cc1)c1ccc(Cl)cc1 |
| 257 to 259 | CC(=O)N1CCN(c2ccc(-c3ccn[nH]3)cc2)CC1 |
| 138 to 140 | CSc1nc(=O)cc(N)n1-c1ccc(Br)cc1 |
| 118 to 120 | CN1CC(CCCl)Oc2ccc(Br)cc2C1=S (centres undefined) |
| 71 to 72 | CN(C)CCC1(c2ccccc2)CCc2ccccc2C1=O (centres undefined) |
| 130 to 135 | CC(C)N1CCN(C(=O)OC2C3=C(SCCS3)C(=O)N2c2ccc(Cl)cn2)CC1 (centres undefined) |
| 208 | CC(=O)Nc1ccc(C(=O)O)cc1OCCO |
| 257 | COC(=O)Nc1ccc(CC(=O)Nc2cccc3c2C(=O)c2c-3n[nH]c2-c2ccc(OC)cc2)cc1 |
| 147 to 148 | CC(C)(C)C1=CC(=Cc2ccc(C#N)cc2)C=C(C(C)(C)C)C1=O |
| 69 | CCCCCCOc1ccc(C=[N+]([O-])C(C)(C)C)cc1 |

| melting point [°C] | Structure (SMILES) |
| --- | --- |
| 184 to 186 | Cn1ccc(COc2nn3c(-c4ccccc4F)nnc3cc2C2CCC2)n1 |
| 192 to 194 | CC(C(N)=O)n1nc(-c2cc(C(C)(C)C)c(O)c(C(C)(C)C)c2)c2cccnc21 (centres undefined) |
| 88 to 90 | CC(C)(COc1ccc(Cl)cc1)C(=O)Cn1cncn1 |
| 254 to 256 | O=c1[nH]nc(-c2ccccc2)c(-c2ccccc2)c1S(=O)(=O)c1ccccc1 |
| 212 | CC1(C)CCC(C)(C)c2c(OCc3ccc(F)cc3)cc(C(O)c3ccc4cc(C(=O)O)ccc4c3)cc21 (centres undefined) |
| 72.5 to 73.5 | CCOC(=O)c1ccc(OCCCCCCCCCCCCCCOc2ccc(Cl)cc2)cc1 |
| 70 to 71 | CCCCCCCCCCCCCCCCCCC(NC(C)=O)(C(=O)OCC)C(=O)OCC |
| 82 to 84 | COc1ccc(CCOCC(=O)O)cc1 |
| 245 to 247 | COc1cc2c(cc1OC)C(C(S)(C#N)c1ccccc1C(=O)O)=NCC2 (centres undefined) |
| 197 | CN(C)c1cc(C(F)(F)F)cc(Cl)c1-n1nc(C#N)c(S(=O)(=O)C(F)(F)F)c1N |
| 159 to 161 | CCCCc1nc2c(C)cnc(C(=O)O)c2n1Cc1ccc(-c2ccccc2-c2nnn[nH]2)cc1 |
| 170 to 174 | CCCNc1nc(NCc2ccc(NC(=O)c3ccc(F)cc3)cc2)c2ccc(C)cc2n1 |
| 132 | CC(C)CNCC(O)c1cc(C(F)(F)F)nc2c(C(F)(F)F)cccc12 (centres undefined) |
| 103 | CCNC(=O)NC1=C(C(=O)OC)CCNC1=O |
| 225 to 227 | Cc1cccc(C(=O)Nc2c[nH]nc2C(=O)NCCC#N)n1 |
| 184 | CC(C)N1CCC(C(=O)OC2c3ccccc3C(=O)N2c2ccc3ccc(Cl)nc3n2)CC1 (centres undefined) |
| 125 to 130 | COC1CCN(C2CCN(c3ccc(N)cc3C#N)CC2)CC1 |
| 83 to 84 | CCCSc1cc2c(c3c1OC(C)(C)C3)C(c1cccc(C(=O)OCC)c1)=NC(C)(C)C2 |
| 209 | CC1(c2cc(-c3nc4ccc(OCc5ccccc5)cc4[nH]3)ccc2OCc2ccccc2)CCCCC1 |
| 55 to 56 | O=C(NCCCc1ccccc1)Oc1ccccc1 |
| 213 to 214 | CC(C)(C)c1cc(C(=O)O)ccc1OCc1ccccc1 |
| 78 to 79 | COC(=O)c1ccccc1OCC(O)CNC(C)C (centres undefined) |
| 292 to 296 | CCOC(=O)C(=C1SC(=S)N(CC(=O)O)C1=O)c1csc(NC(C)=O)n1 |
| 98 to 101 | COP(=O)(CCC(C)(C)c1ccc(O)cc1)OC |

| melting point [°C] | Structure (SMILES) |
| --- | --- |
| 197 to 199 | O=C(c1ccc(-c2ccn(C(=O)C3CC3)n2)cc1)N1Cc2cccn2Cc2ccccc21 |
| 192 to 193 | CN1CCN(c2ccccc2C=CC(=O)Nc2ccc(Cl)c(Cl)c2)CC1 |
| 256 | COC(=O)C(C#N)=C(N)c1c(-c2ccccc2)noc1N |
| > 250 | CNCC1Cc2cc(-c3ccc(F)cc3)cc(F)c2O1 (centres undefined) |
| 32 | CCCCCc1ccc(-c2ccc(Cl)s2)cn1 |
| 181 | Cc1c(C(=O)O)cnn1-c1ccc(C(F)(F)F)cc1 |
| > 230 | Cn1cc(NC(=O)c2cc(NC(=O)c3cc([N+](=O)[O-])cn3C)cn2C)cc1C(=O)NCCN1CCOCC1 |
| 224 to 226 | COc1ccc(NC(=O)NCc2ccc(-n3c(-c4cccnc4N)nc4cccnc43)cc2)cc1 |
| 86 to 87 | CC(COc1c(-c2ccccc2)c(=O)oc2ccccc12)CN1CCCCC1 (centres undefined) |
| 178 to 179 | Cc1c(NC(=O)c2ccc(C3CCCCC3)cc2)ccc2cc(CN3CCCC3)cnc12 |
| 160 to 162 | COCNC(=O)NC1CCCc2sccc21 (centres undefined) |
| 97 to 98 | CCCc1nn(-c2ccc(C(F)(F)F)cn2)cc1CCCOc1cccc(CCC(=O)O)c1 |
| 39 to 43 | CC[C@@H](C=O)NC(=O)OC(C)(C)C |
| 104 | Cc1cc(OC(F)(F)F)ccc1NC(=O)c1cccc(I)c1C(=O)NC(C)CC(=O)N(C)C (centres undefined) |
| 153 | OC(CN1CCNC1=S)c1ccc(Cl)cc1 (centres undefined) |
| 108 to 109 | CCCCCCCCCCCCCCOc1ccc(CNC(=O)NCc2ccccn2)cc1 |
| 140 to 142 | CCOC(=O)COc1ccc2cc(-c3cc4ccccc4o3)ccc2c1Cl |
| 220 to 221 | OCC(Nc1ccnc2cc(Cl)ccc12)c1ccccc1 (centres undefined) |
| 243 to 244 | Cc1[nH]c2ncnc(Nc3cccc(Br)c3)c2c1C |
| 114 to 115 | CC(C)N(C[C@H](O)[C@H](Cc1ccccc1)NC(=O)OCc1ccccc1)NC(=O)OC(C)(C)C |
| 59.5 to 61 | CC(C)CCS(=O)c1cccc(-c2nc(=O)c3ccccc3s2)n1 (centres undefined) |

| Structure (SMILES) | melting point [°C] |
| --- | --- |
| CN1C2CCC1CC(O)(c1ccc(F)cc1)C2 (centres undefined) | 169 |
| O=C(c1ccc(Cl)cc1)c1cc([N+](=O)[O-])ccc1N1CCC(Cc2ccccc2)CC1 | 211 |
| Cc1nc(C=NN(C)C)c2n1-c1ccc(Cl)cc1C(c1ccccc1Cl)=NC2 | 238 to 242 |
| CC(=Cc1cc(Br)ccc1O)[N+](=O)[O-] | 95 to 97 |
| COC(=N)N1CCC(c2n[nH]c3ccccc23)CC1 | 153 to 155 |
| CN1Cc2c(CO)ncn2-c2ccccc2C1=O | 219 to 221 |
